Measurements from patent US20240124460A1, “METHODS AND COMPOSITIONS FOR TARGETED PROTEIN DEGRADATION” (Ranok Therapeutics (Hangzhou) Co. Ltd., priority 2020, published 2024).

What was measured:
HSP90α protein [1] = biological target: T1, HSP90α protein (Homo sapiens, UniProt P07900); assay: HSP90α-binding FP (FITC) assay; details: FP competition with FITC-geldanamycin
T1 construct: purchased BPS Bioscience #50298
Description: Binding of test compounds to HSP90α protein was measured by fluorescent polarization (FP) using the HSP90α (N-terminal) Assay Kit (BPS Bioscience, #50298), following the manufacturer's instructions, except as noted. Fluorescently labeled HSP90-binding compounds, either the provided FITC-geldanamycin (5 nM final concentration) or RNK04010, a triazolone-based HSP90 binding small molecule labeled with BODIPY through a piperazine-phenyl linker (5 nM final concentration) were employed. A 2.5-fold serial dilution of each test compound ranging from 20 μM to 5.2 nM was assayed for binding to HSP90α. After the final step of adding HSP90α protein to each assay well, plates were mixed by brief shaking, incubated at 25° C. for 120 min for FITC-geldanamycin or 300 min for RNK04010, and fluorescence was measured using a PerkinElmer EnVision Plate Reader.

ERBB2 = ERBB2 (HER2) flow cytometry protein degradation assay in BT-474 cells; format: cell-based, human; details: DC50, BT-474 cells, 24 hr
How it was run: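 BT-474 cells trypsinised after compound treatment and stained with PE-conjugated anti-ERBB2 antibody, 30 min at 25° C in the dark, then fixed in 1% paraformaldehyde for flow cytometry. % inhibition = 100−(D−B)/(S−B)*100, using treated, untreated-stained and unstained cell fluorescence.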

[2] = test system: MV-4-11 human acute myeloid leukemia; assay: MV-4-11 CCK-8 proliferation assay; format: cell-based; details: Homo sapiens, MV4-11; MV-4-11 cells, 72 hr
How it was run: (§1)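 3-fold dilution series, 20 μM–1.02 nM; ATCC culture conditions; CCK-8 absorbance read-out; % inhibition = 100 − (D−B)/(S−B)×100, S = DMSO cells, B = medium + DMSO, no cells.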

[3] = test system: U-87 MG human glioblastoma; assay: U87 MG CCK-8 proliferation assay; format: cell-based; details: Homo sapiens, U-87 MG, 72 h, U-87 MG cells, read-out: U87MG CCK-8
How it was run: as §1

HSP90α protein [4] = biological target: T1, HSP90α protein; assay: HSP90α-binding FP (BODIPY) assay; details: FP competition with BODIPY-labeled RNK04010
How it was run: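 Fluorescence polarization measured competition with N-terminal human HSP90α, using either FITC-geldanamycin or BODIPY-labelled triazolone RNK04010 as tracer (5 nM final each). Compounds were tested in 2.5-fold dilutions from 20 μM to 5.2 nM, with incubation at 25 °C for 120 min (FITC) or 300 min (BODIPY).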

MAPK7 [5] = biological target: T2, MAPK7 (Homo sapiens, UniProt Q13164); assay: MAPK7 kinase assay (ADP-Glo); format: biochemical; design: purchased Carna Biosciences #04-146; details: ATP 340 μM
T2 sequence (Q13164 whole entry): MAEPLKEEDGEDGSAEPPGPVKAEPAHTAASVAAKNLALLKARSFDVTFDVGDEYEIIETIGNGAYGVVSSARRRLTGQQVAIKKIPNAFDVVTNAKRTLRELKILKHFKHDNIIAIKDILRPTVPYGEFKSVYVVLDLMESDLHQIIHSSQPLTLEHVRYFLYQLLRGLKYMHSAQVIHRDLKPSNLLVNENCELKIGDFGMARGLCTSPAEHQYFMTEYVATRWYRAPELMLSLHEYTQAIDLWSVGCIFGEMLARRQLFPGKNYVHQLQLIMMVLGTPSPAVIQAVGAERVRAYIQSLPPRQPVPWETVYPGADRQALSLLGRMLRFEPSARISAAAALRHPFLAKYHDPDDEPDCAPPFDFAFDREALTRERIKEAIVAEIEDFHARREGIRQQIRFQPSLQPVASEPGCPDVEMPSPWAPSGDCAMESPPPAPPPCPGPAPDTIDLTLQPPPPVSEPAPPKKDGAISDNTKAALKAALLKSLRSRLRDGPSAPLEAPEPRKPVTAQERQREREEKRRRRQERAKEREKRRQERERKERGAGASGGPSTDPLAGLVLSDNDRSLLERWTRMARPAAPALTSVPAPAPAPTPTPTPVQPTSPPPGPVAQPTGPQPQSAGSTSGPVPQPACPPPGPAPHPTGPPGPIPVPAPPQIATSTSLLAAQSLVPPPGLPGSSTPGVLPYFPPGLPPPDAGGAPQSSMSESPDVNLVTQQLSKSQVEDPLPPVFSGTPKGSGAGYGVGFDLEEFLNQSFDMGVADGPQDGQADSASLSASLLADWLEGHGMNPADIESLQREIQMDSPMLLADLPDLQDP
Description: The inhibition of MAPK7 kinase activity by test compounds was measured by the ADP-Glo Kinase Assay (Promega, #V6930), following the manufacturer's instructions, except as noted. 3-fold serial dilutions of each test compound were prepared ranging from 50 μM to 2.54 nM. Also, as a positive control, a 4-fold serial dilution of the MAPK7 inhibitor, XMD17-109 (MedChemExpress, #HY-15665) was prepared ranging from 10 μM to 0.04 nM. In brief, in 384-well plates, test compounds were added to the kinase reaction mix containing recombinant MAPK7 protein (Carna Biosciences, #04-146; 20 nM final concentration), myelin basic protein (SignalChem Biotech, #M42-54G; 0.1 mg/ml final concentration) and ATP (340 μM final concentration), then mixed by shaking and incubated with ADP-Glo Reagent and Kinase Detection Reagent. Luminescence was measured on a BioTek plate reader.
Lumpositive: The average ratio for 10 wells of positive controls (10 μM XMD17-109) across the plate.
Lumvehicle: The average ratio for 10 wells of negative controls (0.5% DMSO) across the plate.

MAPK7 [6] = biological target: T2, MAPK7; assay: MAPK7 Western blot protein degradation assay in U-87 MG cells; format: cell-based; design: U-87 MG human glioblastoma cells, which express MAPK7; endogenous in cells; host or cells: U-87 MG; details: 48 hr
Description: U-87 MG human glioblastoma cells were seeded in 6- or 12-well tissue culture plates, and after 1 hr, test compounds were added at various concentrations and incubated at 37° C./5% CO2 for 48 hr. Cells were then washed with cold PBS, aspirated and cold RIPA buffer containing a protease/phosphatase inhibitor cocktail was added to lyse cells. After centrifugation, the total protein concentrations of cell lysates were determined using the BCA protein assay. Samples were normalized for equivalent protein concentrations, 5×SDS-PAGE loading buffer added and denatured at 100° C. for 10 min. 20 μl of each sample/well was loaded on a SDS-PAGE gel and electrophoresed for 20 min at 80 V, then 120 V for 1.5 hr. Gels were then electroblotted to nitrocellulose membranes using a wet-transfer method at 250 mA for 2.5 hr. Membranes were incubated with blocking buffer for 1 hr and washed 3 times with TBST for 5 min. Membranes were then incubated with anti-MAPK7 (anti-ERK5; Cell Signaling Technology, #12950) and anti-3-Actin (Cell Signaling Technology, #3700) monoclonal antibodies diluted in blocking buffer at 4° C. overnight per the manufacturer's recommendations. After washing 3 times, blots were incubated with appropriately labeled secondary antibodies for 1 hr at room temperature and washed again. Fluorescence imaging and quantitation was performed using a LI-COR Odyssey. Results was analyzed using GraphPad Prism 7 software.

| SMILES | IC50 (HSP90α protein [1]) | EC50 [2] | EC50 [3] | IC50 (HSP90α protein [4]) | IC50 (MAPK7 [5]) | MAPK7 degradation (30 nM) (MAPK7 [6]; 30 nM) | MAPK7 degradation (100 nM) (MAPK7 [6]; 100 nM) | MAPK7 degradation (1000 nM) (MAPK7 [6]; 1000 nM) | ERBB2 degradation (ERBB2) |
| --- | --- | --- | --- | --- | --- | --- | --- | --- | --- |
| CCOc1cc(N2CCC(C(=O)N3CCC(CN4CCN(CCOc5ccc(Nc6cc(-n7nc(C(F)(F)F)c8c7CC(C)(C)CC8=O)ccc6C(N)=O)cc5)CC4)CC3)CC2)ccc1Nc1ncc2c(n1)N(C)c1ccccc1C(=O)N2C [Compound 130, 4-(6,6-dimethyl-4-oxo-3-(trifluoromethyl)-4,5,6,7-tetrahydro-1H-indazol-1-yl)-2-((4-(2-(4-((1-(1-(4-((5,11-dimethyl-6-oxo-6,11-dihydro-5H-benzo[e]pyrimido[5,4-b][1,4]diazepin-2-yl)amino)-3-ethoxyphenyl)piperidine-4-carbonyl)piperidin-4-yl)methyl)piperazin-1-yl)ethoxy)phenyl)amino)benzamide] | > 1000 nM | 100 to 1000 nM | > 1000 nM |  |  |  |  |  |  |
| CCOc1cc(N2CCC(C(=O)N3CCC(CN4CCN(Cc5ccc(-n6c(C(=O)NC(C)C(F)(F)F)nnc6-c6cc(CC)c(O)cc6OC)cc5)CC4)CC3)CC2)ccc1Nc1ncc2c(n1)N(S(C)(=O)=O)c1ccccc1C(=O)N2C (stereo not drawn) [Compound 142, 4-(4-((4-((1-(1-(3-ethoxy-4-((5-methyl-11-(methylsulfonyl)-6-oxo-6,11-dihydro-5H-benzo[e]pyrimido[5,4-b][1,4]diazepin-2-yl)amino)phenyl)piperidine-4-carbonyl)piperidin-4-yl)methyl)piperazin-1-yl)methyl)phenyl)-5-(5-ethyl-4-hydroxy-2-methoxyphenyl)-N-(1,1,1-trifluoropropan-2-yl)-4H-1,2,4-triazole-3-carboxamide] |  |  |  |  | 100 to 1000 nM |  |  |  |  |
| CCOc1cc(N2CCC(C(=O)N3CCC(CN4CCN(C(=O)c5ccc(-n6c(O)nnc6-c6cc(C(C)C)c(O)cc6O)cc5)CC4)CC3)CC2)ccc1Nc1ncc2c(n1)N(S(C)(=O)=O)c1ccccc1C(=O)N2C [Compound 127, 2-((4-(4-(4-((4-(4-(3-(2,4-dihydroxy-5-isopropylphenyl)-5-hydroxy-4H-1,2,4-triazol-4-yl)benzoyl)piperazin-1-yl)methyl)piperidine-1-carbonyl)piperidin-1-yl)-2-ethoxyphenyl)amino)-5-methyl-11-(methylsulfonyl)-5,11-dihydro-6H-benzo[e]pyrimido[5,4-b][1,4]diazepin-6-one] | 100 to 1000 nM | 100 to 1000 nM | 100 to 1000 nM |  |  |  |  |  |  |
| CCOc1cc(N2CCC(C(=O)NCC3CCN(C(=O)C4CCN(Cc5ccc(-n6c(O)nnc6-c6cc(CC)c(O)cc6O)cc5)CC4)CC3)CC2)ccc1Nc1ncc2c(n1)N(C)c1ccccc1C(=O)N2C [Compound 011, 1-(4-((5,11-dimethyl-6-oxo-6,11-dihydro-5H-benzo[e]pyrimido[5,4-b][1,4]diazepin-2-yl)amino)-3-ethoxyphenyl)-N-((1-(1-(4-(3-(5-ethyl-2,4-dihydroxyphenyl)-5-hydroxy-4H-1,2,4-triazol-4-yl)benzyl)piperidine-4-carbonyl)piperidin-4-yl)methyl)piperidine-4-carboxamide] | 100 to 1000 nM | 100 to 1000 nM | > 1000 nM |  |  |  |  |  |  |

Further lines, with some results ahead:

| IC50 (HSP90α protein [1]) | EC50 [2] | EC50 [3] | IC50 (HSP90α protein [4]) | IC50 (MAPK7 [5]) | MAPK7 degradation (30 nM) (MAPK7 [6]; 30 nM) | MAPK7 degradation (100 nM) (MAPK7 [6]; 100 nM) | MAPK7 degradation (1000 nM) (MAPK7 [6]; 1000 nM) | SMILES | ERBB2 degradation (ERBB2) |
| --- | --- | --- | --- | --- | --- | --- | --- | --- | --- |
| 100 to 1000 nM | < 100 nM | 100 to 1000 nM |  |  |  |  |  | CCOc1cc(N2CCC(C(=O)NCCOc3cccc(CN(C)Cc4ccc(-n5c(O)nnc5-c5cc(C(C)C)c(O)cc5O)cc4)c3)CC2)ccc1Nc1ncc2c(n1)N(C)c1ccccc1C(=O)N2C [Compound 007, N-(2-(3-(((4-(3-(2,4-dihydroxy-5-isopropylphenyl)-5-hydroxy-4H-1,2,4-triazol-4-yl)benzyl)(methyl)amino)methyl)phenoxy)ethyl)-1-(4-((5,11-dimethyl-6-oxo-6,11-dihydro-5H-benzo[e]pyrimido[5,4-b][1,4]diazepin-2-yl)amino)-3-ethoxyphenyl)piperidine-4-carboxamide] | B (DC50 = 100-1000 nM) |
| < 100 nM | 100 to 1000 nM | > 1000 nM |  |  |  |  |  | CCOc1cc(N2CCC(OCC(=O)N3CCN(Cc4ccc(-n5c(O)nnc5-c5cc(C(C)C)c(O)cc5O)cc4)CC3)CC2)ccc1Nc1ncc2c(n1)N(C)c1ccccc1C(=O)N2C [Compound 001, 2-((4-(4-(2-(4-(4-(3-(2,4-dihydroxy-5-isopropylphenyl)-5-hydroxy-4H-1,2,4-triazol-4-yl)benzyl)piperazin-1-yl)-2-oxoethoxy)piperidin-1-yl)-2-ethoxyphenyl)amino)-5,11-dimethyl-5H-benzo[e]pyrimido[5,4-b][1,4]diazepin-6(11H)-one] | C (DC50 > 1000 nM) |
|  | < 100 nM | 100 to 1000 nM | < 100 nM | > 1000 nM |  |  |  | CCNC(=O)c1nnc(-c2cc(CC)c(O)cc2O)n1-c1ccc(CN2CCN(CC3CCN(C(=O)C4CCN(c5ccc(N(CC)c6ncc7c(n6)N(S(C)(=O)=O)c6ccccc6C(=O)N7C)c(OCC)c5)CC4)CC3)CC2)cc1 [Compound 135, 4-(4-((4-((1-(1-(3-ethoxy-4-(ethyl(5-methyl-11-(methylsulfonyl)-6-oxo-6,11-dihydro-5H-benzo[e]pyrimido[5,4-b][1,4]diazepin-2-yl)amino)phenyl)piperidine-4-carbonyl)piperidin-4-yl)methyl)piperazin-1-yl)methyl)phenyl)-N-ethyl-5-(5-ethyl-2,4-dihydroxyphenyl)-4H-1,2,4-triazole-3-carboxamide] |  |
| 100 to 1000 nM | < 100 nM | < 100 nM |  |  | C (< 33% degradation) | C (< 33% degradation) | A (>66% degradation) | CCOc1cc(N2CCC(C(=O)NCCOCc3ccc(-n4c(O)nnc4-c4cc(C(C)C)c(O)cc4O)cc3)CC2)ccc1Nc1ncc2c(n1)N(C)c1ccccc1C(=O)N2C [Compound 005, N-(2-((4-(3-(2,4-dihydroxy-5-isopropylphenyl)-5-hydroxy-4H-1,2,4-triazol-4-yl)benzyl)oxy)ethyl)-1-(4-((5,11-dimethyl-6-oxo-6,11-dihydro-5H-benzo[e]pyrimido[5,4-b][1,4]diazepin-2-yl)amino)-3-ethoxyphenyl)piperidine-4-carboxamide] | B (DC50 = 100-1000 nM) |
| < 100 nM | < 100 nM | 100 to 1000 nM |  |  |  |  |  | CCOc1cc(N2CCC(OCC(=O)NCCOCCN3CCN(Cc4ccc(-n5c(O)nnc5-c5cc(C(C)C)c(O)cc5O)cc4)CC3)CC2)ccc1Nc1ncc2c(n1)N(C)c1ccccc1C(=O)N2C [Compound 002, N-(2-(2-(4-(4-(3-(2,4-dihydroxy-5-isopropylphenyl)-5-hydroxy-4H-1,2,4-triazol-4-yl)benzyl)piperazin-1-yl)ethoxy)ethyl)-2-((1-(4-((5,11-dimethyl-6-oxo-6,11-dihydro-5H-benzo[e]pyrimido[5,4-b][1,4]diazepin-2-yl)amino)-3-ethoxyphenyl)piperidin-4-yl)oxy)acetamide] | B (DC50 = 100-1000 nM) |
